For one compound, EC50 results are on record in ChEMBL document CHEMBL1151412, “Constituents of Couepia paraensis” (1983).

Converted amounts (≈) assume the structure as drawn.

This test has as its system KB. Kind of test: Cytotoxicity against human KB cells. It is filed as functional. Conditions: read-out: ED50 (the source's name).

In the case of `COc1c(OC)c(O)c2c(=O)cc(C)oc2c1C`, the EC50 turned out to be 60 mg/L (≈ 240 µM).
